According to the NIST ThermoML archive (doi:10.1016/j.fluid.2010.02.020):
Where “and” joins values, the source holds several entries; their conditions need not be identical. Equal values may be shown once.

Details: for mass density: 101.33 kPa, Liquid, Vibrating tube method; for surface tension liquid-gas: Pendant drop shape

CCCCCCCCn1cc[n+](C)c1.O=S(=O)([N-]S(=O)(=O)C(F)(F)F)C(F)(F)F
Details	mass density [kg/m3]	surface tension liquid-gas [mN/m]
293.15 K	1326.5	–
303.15 K	1317.5	–
313 K	–	29.2
313.15 K	1308.6	–
313.2 K	–	28.5
323.15 K	1299.8	–
332.6 K	–	27.4
333.15 K	1291.2	–
333.3 K	–	28.2
343.15 K	1282.5	–
352.8 K	–	26.1
353.15 K	1273.9	–
353.8 K	–	27.3
363.15 K	1265.3	–
372.8 K	–	25.2
373.15 K	1256.7	–
373.6 K	–	26.3
383.15 K	1248.1	–
392.9 K	–	24
393.15 K	1239.5	–
393.6 K	–	25.3
403.15 K	1230.9	–
412.9 K	–	23.1
413.15 K	1222.2	–
413.4 K	–	24.3
423.15 K	1213.5	–
432.8 K	–	22.1
433.15 K	1204.8	–
433.3 K	–	23.2
443.15 K	1195.9	–
452.5 K	–	21.5
453.15 K	1187	–
453.4 K	–	22.1
463.15 K	1178	–
472.4 K	–	19.7
473.15 K	1168.8	–
473.6 K	–	20.7
493 K	–	20.1
512.6 K	–	19.2

CCn1cc[n+](C)c1.O=S(=O)([N-]S(=O)(=O)C(F)(F)F)C(F)(F)F
Details	mass density [kg/m3]	surface tension liquid-gas
293.15 K	1525	–
303.15 K	1515.1	–
313 K	–	35.2 mN/m
313.15 K	1505.3	–
313.2 K	–	33.8 mN/m and 34.7 mN/m
323.15 K	1495.5	–
332.7 K	–	34.2 mN/m
333.15 K	1485.8	–
333.3 K	–	33.6 mN/m
343.15 K	1476.1	–
352.4 K	–	33.4 mN/m
353.15 K	1466.4	–
353.4 K	–	33.4 mN/m
363.15 K	1456.7	–
372.7 K	–	32.5 mN/m
373.15 K	1447	–
373.2 K	–	31.5 mN/m
383.15 K	1437.2	–
392.9 K	–	31.4 mN/m
393.15 K	1427.4	–
393.2 K	–	31.1 mN/m
403.15 K	1417.5	–
412.8 K	–	30.5 mN/m
413.1 K	–	30.1 mN/m
413.15 K	1407.5	–
423.15 K	1397.5	–
432.5 K	–	29.6 mN/m
433.15 K	1387.3	–
443.15 K	1377	–
452.7 K	–	27.3 mN/m
453 K	–	28.7 mN/m
453.15 K	1366.6	–
463.15 K	1356	–
472.5 K	–	25.7 mN/m
472.7 K	–	26.4 mN/m
473.15 K	1345.2	–
512.6 K	–	24.6 mN/m
532.2 K	–	23.7 mN/m

CCCCCCCCCCCCn1cc[n+](C)c1.O=S(=O)([N-]S(=O)(=O)C(F)(F)F)C(F)(F)F
Details	mass density [kg/m3]	surface tension liquid-gas [mN/m]
293.15 K	1249.6	–
303.15 K	1240.9	–
313.15 K	1232.4	–
323.15 K	1224	–
333.15 K	1215.6	–
333.3 K	–	26.4
343.15 K	1207.4	–
353.15 K	1199.2	–
353.6 K	–	25.4
363.15 K	1190.9	–
373.15 K	1182.8	–
373.7 K	–	24.5
383.15 K	1174.7	–
393.15 K	1166.2	–
393.6 K	–	23.6
403.15 K	1158.4	–
413.15 K	1150.2	–
413.7 K	–	22.5
423.15 K	1142	–
433.15 K	1133.7	–
433.6 K	–	21.4
453.8 K	–	20.4
473.7 K	–	19.5
493.3 K	–	18.8
512.9 K	–	17.8
532.6 K	–	16.9
